Data: US20170022171A1, “2,5-DISUBSTITUTED CYCLOPENTANECARBOXYLIC ACIDS AND THEIR USE” (Bayer Pharma Aktiengesellschaft, priority 2014, published 2017)

Target: T1, human macrophage elastase (HME/hMMP-12) (Homo sapiens, UniProt P39900)
T1 construct: 0.5 nM HME; purchased R&D Systems 917-MP
Test: In vitro HME inhibition test (standard or high-sensitivity)
Type: biochemical
Settings: in some cases mean values
Method: The potency of the compounds according to the invention with respect to HME (MMP-12) is determined in an in vitro inhibition test. The HME-mediated amidolytic cleavage of a suitable peptide substrate leads to an increase in fluorescent light therein. The signal intensity of the fluorescent light is directly proportional to the enzyme activity. The active concentration of a test compound at which half the enzyme is inhibited (50% signal intensity of the fluorescent light) is reported as the IC50 value.
In a 384 hole microtiter plate, in a total test volume of 41 the test buffer (0.1 M HEPES pH 7.4, 0.15 M NaCl, 0.03 M CaCl2, 0.004 mM ZnCl2, 0.02 M EDTA, 0.005% Brij®), the enzyme (0.5 nM HME; from R&D Systems, 917-MP, autocatalytic activation according to the manufacturer's instructions) and the intramolecularly quenched substrate [5 μM Mca-Pro-Leu-Gly-Leu-Glu-Glu-Ala-Dap(Dnp)-NH2; Bachem, M-2670] are incubated in the absence and presence of the test substance (as a solution in DMSO) at 37° C. for two hours. The fluorescence intensity of the test mixtures is measured (excitation […], emission 393 nm). The IC50 values are ascertained by plotting the fluorescent light intensity against the active ingredient concentration.
In this case, an enzyme concentration ten times lower is used (final concentration, for example, 0.05 nM) in order to achieve an elevated test sensitivity. The incubation period chosen for the test is correspondingly longer (for example 16 hours).

T1 sequence (P39900 106-470): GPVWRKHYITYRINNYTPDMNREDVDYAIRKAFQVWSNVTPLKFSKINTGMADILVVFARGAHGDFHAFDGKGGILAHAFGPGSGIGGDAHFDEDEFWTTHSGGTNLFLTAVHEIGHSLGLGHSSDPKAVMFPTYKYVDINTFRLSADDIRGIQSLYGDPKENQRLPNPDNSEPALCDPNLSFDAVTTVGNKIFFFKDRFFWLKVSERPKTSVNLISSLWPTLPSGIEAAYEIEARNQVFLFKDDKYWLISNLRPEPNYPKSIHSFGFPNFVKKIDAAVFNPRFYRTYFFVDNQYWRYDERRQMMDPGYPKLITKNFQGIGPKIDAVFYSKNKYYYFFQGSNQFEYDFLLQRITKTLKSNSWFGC

IC50 [nM]	SMILES
0.24	Cc1ccc2nnn(C[C@H]3CC[C@@H](C(=O)c4ccc(OCCc5ccccc5)cc4)[C@@H]3C(=O)O)c(=O)c2c1 (single isomer, unassigned) [Example 113, (+)-(1RS,2SR,5RS)-2-[(6-Methyl-4-oxo-1,2,3-benzotriazin-3(4H)-yl)methyl]-5-[4-(2-phenylethoxy)benzoyl]cyclopentanecarboxylic acid]
190	Cc1ccc2nnn(C[C@H]3CC[C@@H](C(=O)c4ccc(OCc5ccccc5)cc4)[C@@H]3C(=O)O)c(=O)c2c1 (single isomer, unassigned) [Example 93, (−)-(1RS,2RS,5SR)-2-[4-(Benzyloxy)benzoyl]-5-[(6-methyl-4-oxo-1,2,3-benzotriazin-3(4H)-yl)methyl]cyclopentanecarboxylic acid]
190	CCCCCCOc1ccc(C(=O)[C@@H]2CC[C@H](Cn3nnc4ccc(C)cc4c3=O)[C@H]2C(=O)O)cc1 (single isomer, unassigned) [Example 122, (−)-(1RS,2RS,5SR)-2-[4-(Hexyloxy)benzoyl]-5-[(6-methyl-4-oxo-1,2,3-benzotriazin-3(4H)-yl)methyl]cyclopentanecarboxylic acid]
0.13	Cc1ccc2nnn(C[C@@H]3CC[C@H](C(=O)c4ccc(OCCCc5ccccc5)cc4)[C@H]3C(=O)O)c(=O)c2c1 (racemic) [Example 115, (+/−)-(1RS,2SR,5RS)-2-[(6-Methyl-4-oxo-1,2,3-benzotriazin-3(4H)-yl)methyl]-5-[4-(3-phenylpropoxy)benzoyl]cyclopentanecarboxylic acid]

Further lines, the compound ahead of its results:

SMILES	IC50 [nM]
O=C(O)[C@H]1[C@H](Cn2nnc3ccc(C(F)(F)F)cc3c2=O)CC[C@@H]1C(=O)c1ccc(SCC2CCCCC2)cc1 (racemic) [Example 85]	0.22
CCCOc1ccc(C(=O)[C@H]2CC[C@@H](Cn3nnc4ccc(C(F)(F)F)cc4c3=O)[C@@H]2C(=O)O)cc1 (racemic) [Example 69, (+/−)-(1RS,2SR,5RS)-2-{[4-Oxo-6-(trifluoromethyl)-1,2,3-benzotriazin-3(4H)-yl]methyl}-5-(4-propoxybenzoyl)cyclopentanecarboxylic acid]	0.094
CCCCOc1ccc(C(=O)[C@H]2CC[C@@H](Cn3nnc4ccccc4c3=O)[C@@H]2C(=O)O)cc1 (racemic) [Example 10, (+/−)-(1RS,2RS,5SR)-2-(4-Butoxybenzoyl)-5-[(4-oxo-1,2,3-benzotriazin-3 (4H)-yl)methyl]cyclopentanecarboxylic acid]	0.36
O=C(O)[C@H]1[C@H](Cn2nnc3ccc(C(F)(F)F)cc3c2=O)CC[C@@H]1C(=O)c1ccc(OCC2CC2)cc1 (racemic) [Example 49, (+/−)-(1RS,2RS,5SR)-2-[4-(Cyclopropylmethoxy)benzoyl]-5-{[4-oxo-6-(trifluoromethyl)-1,2,3-benzotriazin-3(4H)-yl]methyl}cyclopentanecarboxylic acid]	0.14
O=C(O)[C@@H]1[C@@H](Cn2nnc3ccc(C(F)(F)F)cc3c2=O)CC[C@H]1C(=O)c1ccc(OCCC2CCCC2)cc1 (single isomer, unassigned) [Example 54, (−)-(1RS,2RS,5SR)-2-[4-(2-Cyclopentylethoxy)benzoyl]-5-{[4-oxo-6-(trifluoromethyl)-1,2,3-benzotriazin-3(4H)-yl]methyl}cyclopentanecarboxylic acid]	22
Cc1ccc2nnn(C[C@H]3CC[C@@H](C(=O)c4ccc(OCC5CCCCC5)cc4)[C@@H]3C(=O)O)c(=O)c2c1 (single isomer, unassigned) [Example 118, (−)-(1RS,2RS,5SR)-2-[4-(Cyclohexylmethoxy)benzoyl]-5-[(6-methyl-4-oxo-1,2,3-benzotriazin-3(4H)-yl)methyl]cyclopentanecarboxylic acid]	150
CCCCCOc1ccc(C(=O)[C@H]2CC[C@@H](Cn3nnc4ccccc4c3=O)[C@@H]2C(=O)O)cc1 (racemic) [Example 7, (+/−)-(1RS,2SR,5RS)-2-[(4-Oxo-1,2,3-benzotriazin-3(4H)-yl)methyl]-5-[4-(pentyloxy)benzoyl]cyclopentanecarboxylic acid]	0.26
